We go through 13 compounds from PubChem BioAssay AID256 (DTP/NCI, 2004).

SMILES strings stand for the structures. Several values for one entry are separate records, joined by “and”; a condition that tells them apart may be missing. Equal values may be shown once. Toxic doses and inconclusive results are not listed. Residues, ends and D or L forms follow the SMILES beside them.

The test system of the test is CD2F1 mice, L1210 leukemia ip, survival T/C. As to the kind of experiment: NCI In Vivo Anticancer Drug Screen. Data for tumor model L1210 Leukemia (intraperitoneal) in CD2F1 (CDF1) mice. The settings on record: higher = longer survival. A digest of the protocol:
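Antitumor effect is scored in animals hosting a serially transplanted tumor. Values compare compound-dosed animals against vehicle-only controls as a simple quotient.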

Where [1] appears, read: endpoint: mean survival time, dose: 1.56 mg/kg/injection, schedule: Q01DX009 (ip), vehicle: Klucel (hydroxypropylcellulose) (HPC).
Setting [2] is: endpoint: mean survival time, dose: 6.25 mg/kg/injection, schedule: Q01DX009 (ip), vehicle: Klucel (hydroxypropylcellulose) (HPC).
[3] abbreviates: endpoint: mean survival time, dose: 12.5 mg/kg/injection, schedule: Q01DX009 (ip), vehicle: Klucel (hydroxypropylcellulose) (HPC).
Where [4] appears, read: endpoint: mean survival time, dose: 25.0 mg/kg/injection, schedule: Q01DX009 (ip), vehicle: Klucel (hydroxypropylcellulose) (HPC).
Setting [5] is: endpoint: mean survival time, dose: 50.0 mg/kg/injection, schedule: Q01DX009 (ip), vehicle: water.
The mark [6] stands for this setting: endpoint: mean survival time, dose: 25.0 mg/kg/injection, schedule: Q01DX009 (ip), vehicle: saline with Tween-80.
Setting [7] is: endpoint: mean survival time, dose: 200.0 mg/kg/injection, schedule: Q01DX009 (ip), vehicle: saline with Tween-80.

Consider `O=S(CCCl)CCCl`, for which the T/C is, setting by setting: (endpoint: mean survival time, dose: 0.5 mg/kg/injection, schedule: Q01DX009 (ip), vehicle: Klucel (hydroxypropylcellulose) (HPC)) 93 % of control; (endpoint: mean survival time, dose: 0.5 mg/kg/injection, schedule: Q04DX003 (ip), vehicle: Klucel (hydroxypropylcellulose) (HPC)) 98 % of control; (endpoint: mean survival time, dose: 1.0 mg/kg/injection, schedule: Q01DX009 (ip), vehicle: Klucel (hydroxypropylcellulose) (HPC)) 101 % of control; (endpoint: mean survival time, dose: 1.0 mg/kg/injection, schedule: Q04DX003 (ip), vehicle: Klucel (hydroxypropylcellulose) (HPC)) 100 % of control; under setting [1], 109 % of control; (endpoint: mean survival time, dose: 2.0 mg/kg/injection, schedule: Q01DX009 (ip), vehicle: Klucel (hydroxypropylcellulose) (HPC)) 96 % of control. For the same compound, the T/C is, setting by setting: (endpoint: mean survival time, dose: 2.0 mg/kg/injection, schedule: Q04DX003 (ip), vehicle: Klucel (hydroxypropylcellulose) (HPC)) 98 % of control; (endpoint: mean survival time, dose: 3.12 mg/kg/injection, schedule: Q01DX009 (ip), vehicle: Klucel (hydroxypropylcellulose) (HPC)) 100 % of control; (endpoint: mean survival time, dose: 4.0 mg/kg/injection, schedule: Q01DX009 (ip), vehicle: Klucel (hydroxypropylcellulose) (HPC)) 106 % of control; (endpoint: mean survival time, dose: 4.0 mg/kg/injection, schedule: Q04DX003 (ip), vehicle: Klucel (hydroxypropylcellulose) (HPC)) 102 % of control; under setting [2], 104 % of control; (endpoint: mean survival time, dose: 8.0 mg/kg/injection, schedule: Q01DX009 (ip), vehicle: Klucel (hydroxypropylcellulose) (HPC)) 100 % of control. Further, the T/C (endpoint: mean survival time, dose: 8.0 mg/kg/injection, schedule: Q04DX003 (ip), vehicle: Klucel (hydroxypropylcellulose) (HPC)) is 98 % of control; the T/C under setting [3] was 102 % of control; the T/C (endpoint: mean survival time, dose: 16.0 mg/kg/injection, schedule: Q01DX009 (ip), vehicle: Klucel (hydroxypropylcellulose) (HPC)) is 100 % of control; the T/C (endpoint: mean survival time, dose: 16.0 mg/kg/injection, schedule: Q04DX003 (ip), vehicle: Klucel (hydroxypropylcellulose) (HPC)) was 100 % of control; the T/C under setting [4] was 103 % of control; the T/C (endpoint: mean survival time, dose: 32.0 mg/kg/injection, schedule: Q04DX003 (ip), vehicle: Klucel (hydroxypropylcellulose) (HPC)) is 106 % of control.
Take `CC1CC(C)(C)N=C(C(C)CC2CCCCC2)O1` (centres undefined): the T/C reads like this: (endpoint: mean survival time, dose: 100.0 mg/kg/injection, schedule: Q01DX001 (ip), vehicle: saline with Tween-80) 95 % of control; (endpoint: mean survival time, dose: 200.0 mg/kg/injection, schedule: Q01DX001 (ip), vehicle: saline with Tween-80) 93 % of control.
In the case of `COC1C(CO)OC(n2c3c(Cl)cccc3c3c4c(c5c6cccc(Cl)c6[nH]c5c32)C(=O)NC4=O)C(O)C1O` (centres undefined), the T/C runs as follows: (endpoint: median survival time, dose: 12.5 mg/kg/injection, schedule: Q01DX009 (ip), vehicle: distilled water + Tween-80) 105 % of control and 112 % of control; (endpoint: median survival time, dose: 25.0 mg/kg/injection, schedule: Q01DX009 (ip), vehicle: distilled water + Tween-80) 114 % of control; (endpoint: median survival time, dose: 36.0 mg/kg/injection, schedule: Q01DX009 (ip), vehicle: distilled water + Tween-80) 113 % of control; (endpoint: median survival time, dose: 50.0 mg/kg/injection, schedule: Q01DX009 (ip), vehicle: distilled water + Tween-80) 112 % of control; (endpoint: median survival time, dose: 60.0 mg/kg/injection, schedule: Q01DX009 (ip), vehicle: distilled water + Tween-80) 115 % of control; (endpoint: median survival time, dose: 100.0 mg/kg/injection, schedule: Q01DX009 (ip), vehicle: distilled water + Tween-80) 121 % of control and 103 % of control. In addition, the T/C (endpoint: median survival time, dose: 166.7 mg/kg/injection, schedule: Q01DX009 (ip), vehicle: distilled water + Tween-80) is 122 % of control and the T/C (endpoint: median survival time, dose: 200.0 mg/kg/injection, schedule: Q01DX009 (ip), vehicle: distilled water + Tween-80) was 95 % of control.
With `NNC(=O)c1ccc(-c2ccccc2)cc1`, the T/C is, setting by setting: under setting [1], 100 % of control; (endpoint: mean survival time, dose: 3.13 mg/kg/injection, schedule: Q01DX009 (ip), vehicle: Klucel (hydroxypropylcellulose) (HPC)) 98 % of control; under setting [2], 96 % of control; under setting [3], 102 % of control; under setting [4], 94 % of control; (endpoint: mean survival time, dose: 25.0 mg/kg/injection, schedule: Q01DX009 (ip), vehicle: water) 108 % of control. The T/C under setting [5] is 102 % of control and the T/C (endpoint: mean survival time, dose: 100.0 mg/kg/injection, schedule: Q01DX009 (ip), vehicle: water) is 100 % of control.
In the case of `O=C(c1ccccn1)c1ccccn1`, the T/C runs as follows: (endpoint: mean survival time, dose: 100.0 mg/kg/injection, schedule: Q04DX003 (ip), vehicle: saline) 96 % of control; (endpoint: mean survival time, dose: 200.0 mg/kg/injection, schedule: Q04DX003 (ip), vehicle: saline) 104 % of control; (endpoint: mean survival time, dose: 400.0 mg/kg/injection, schedule: Q04DX003 (ip), vehicle: saline) 102 % of control.
Turning to `CN(C)/N=N/c1[nH]ncc1C(N)=O`, the T/C (endpoint: mean survival time, dose: 150.0 mg/kg/injection, schedule: Q01DX001 (oral), vehicle: saline) is 121 % of control and the T/C (endpoint: mean survival time, dose: 1200.0 mg/kg/injection, schedule: Q01DX001 (oral), vehicle: saline) was 158 % of control.
Regarding `CSc1nc(N)c(N=O)c(=O)[nH]1`, the T/C is, setting by setting: (endpoint: mean survival time, dose: 100.0 mg/kg/injection, schedule: Q01DX001 (ip), vehicle: Klucel (hydroxypropylcellulose) (HPC)) 98 % of control; (endpoint: mean survival time, dose: 200.0 mg/kg/injection, schedule: Q01DX001 (ip), vehicle: Klucel (hydroxypropylcellulose) (HPC)) 100 % of control; (endpoint: mean survival time, dose: 400.0 mg/kg/injection, schedule: Q01DX001 (ip), vehicle: Klucel (hydroxypropylcellulose) (HPC)) 109 % of control.
In the case of `Cc1cc(C)c(CC2(C)SCCCS2)c(C)c1`, the T/C is 100 % of control (endpoint: median survival time, dose: 50.0 mg/kg/injection, schedule: Q04DX002 (ip), vehicle: saline with Tween-80); 100 % of control (endpoint: median survival time, dose: 100.0 mg/kg/injection, schedule: Q04DX002 (ip), vehicle: saline with Tween-80); 100 % of control (endpoint: median survival time, dose: 200.0 mg/kg/injection, schedule: Q04DX002 (ip), vehicle: saline with Tween-80); 110 % of control (endpoint: median survival time, dose: 400.0 mg/kg/injection, schedule: Q04DX002 (ip), vehicle: saline with Tween-80).
For the compound `CCCCCCCCCCCCCCCCSc1cccc(C)c1`, the T/C is 95 % of control (endpoint: mean survival time, dose: 100.0 mg/kg/injection, schedule: Q04DX003 (ip), vehicle: Klucel (hydroxypropylcellulose) (HPC)); 92 % of control (endpoint: mean survival time, dose: 200.0 mg/kg/injection, schedule: Q04DX003 (ip), vehicle: Klucel (hydroxypropylcellulose) (HPC)); 98 % of control (endpoint: mean survival time, dose: 400.0 mg/kg/injection, schedule: Q04DX003 (ip), vehicle: Klucel (hydroxypropylcellulose) (HPC)).
In the case of `Nc1ccccc1N`, the T/C by setting is: under setting [6], 95 % of control; under setting [7], 93 % of control.
With `OCCOCC(F)(F)F`, the T/C is 100 % of control (endpoint: mean survival time, dose: 6.25 mg/kg/injection, schedule: Q01DX009 (ip), vehicle: saline with Tween-80); 90 % of control and 112 % of control (endpoint: mean survival time, dose: 12.5 mg/kg/injection, schedule: Q01DX009 (ip), vehicle: saline with Tween-80); 95 % of control and 102 % of control under setting [6]; 94 % of control and 100 % of control (endpoint: mean survival time, dose: 50.0 mg/kg/injection, schedule: Q01DX009 (ip), vehicle: saline with Tween-80); 94 % of control and 100 % of control (endpoint: mean survival time, dose: 100.0 mg/kg/injection, schedule: Q01DX009 (ip), vehicle: saline with Tween-80); 94 % of control and 110 % of control under setting [7].
Regarding `CC(C)[C@](O)(C(=O)OCC1=CC[N+]2([O-])CC[C@@H](O)[C@@H]12)[C@H](C)O` (some centres undefined), the T/C was 116 % of control under setting [5]; 96 % of control (endpoint: mean survival time, dose: 750.0 mg/kg/injection, schedule: Q01DX001 (ip), vehicle: saline); 101 % of control (endpoint: mean survival time, dose: 1000.0 mg/kg/injection, schedule: Q01DX001 (ip), vehicle: saline); 97 % of control (endpoint: mean survival time, dose: 1250.0 mg/kg/injection, schedule: Q01DX001 (ip), vehicle: saline); 105 % of control (endpoint: mean survival time, dose: 1500.0 mg/kg/injection, schedule: Q01DX001 (ip), vehicle: saline); 117 % of control (endpoint: mean survival time, dose: 2000.0 mg/kg/injection, schedule: Q01DX001 (ip), vehicle: saline). Besides, the T/C (endpoint: mean survival time, dose: 3000.0 mg/kg/injection, schedule: Q01DX001 (ip), vehicle: saline) was 115 % of control.
Regarding `CC(O)C(NC(=O)C(N)CCCN=C(N)N)C(=O)NC(Cc1ccccc1)C(=O)O` (stereo not drawn) (H-Arg-Thr-Phe-OH; configuration not given here), the T/C by setting is: (endpoint: mean survival time, dose: 12.5 mg/kg/injection, schedule: Q04DX002 (ip), vehicle: saline) 98 % of control; (endpoint: mean survival time, dose: 25.0 mg/kg/injection, schedule: Q04DX002 (ip), vehicle: saline) 95 % of control; (endpoint: mean survival time, dose: 50.0 mg/kg/injection, schedule: Q04DX002 (ip), vehicle: saline) 98 % of control.
